Assay results as given in publication PMC5554137, “Evaluation of novel factor Xa inhibitors from Oxya chinensis sinuosa with anti-platelet aggregation activity” (Scientific Reports, 2017).
pKi: −log10 of the molar value.

Experiments:
HUVECs = assay: Production of factor Xa on the surface of TNF-α-stimulated HUVECs; format: cell-based, human; details: 10 min pre-incubation
Method: (§1) Figure 6 Effects of compounds 1–4 on inhibition and production of FXa. […] The plots represent means of three independent measurements. (E) Human umbilical vein endothelial cells (HUVECs) were pre-incubated with the indicated concentration of each compound for 10 min. HUVECs stimulated with tumor necrosis factor-α (TNF-α, 10 ng/mL for 6 h) were incubated with FVIIa (10 nM) and FX (175 nM) in the absence or presence of anti-TF IgG (25 µg/mL). FXa production was determined as described in the “ Supplementary Materials and Methods” section. D = 0.2% DMSO used as the vehicle control. (F) Inhibition of FXa by each compound (5 μM) with or without TFPI (2 nM) was monitored using a chromogenic assay. ^* p < 0.05 vs. TNF-α alone (E) or each compound (F) alone, analyzed via one-way ANOVA, followed by Tukey multiple comparison testing.
Production of FXa by FVIIa is dependent on tissue factor (TF) expression in tumor necrosis factor-α (TNF-α)-stimulated HUVECs[22]. Thus, we investigated the effects of compounds 1–4 on the production of FXa by FVIIa. HUVECs were stimulated with TNF-α to induce TF expression, causing an 11.9-fold increase in the rate of FX production by FVIIa (109.4 ± 9.2 nM) over that of non-stimulated HUVECs (9.2 ± 0.8 nM). […] We next determined whether each compound compete with tissue factor pathway inhibitor (TFPI) in the inhibition of FXa. […]

tPA = tPA (Homo sapiens, UniProt P00750); assay: Chromogenic substrate assay, Ki determination, tPA; format: biochemical
tPA, sequence (P00750 36-562): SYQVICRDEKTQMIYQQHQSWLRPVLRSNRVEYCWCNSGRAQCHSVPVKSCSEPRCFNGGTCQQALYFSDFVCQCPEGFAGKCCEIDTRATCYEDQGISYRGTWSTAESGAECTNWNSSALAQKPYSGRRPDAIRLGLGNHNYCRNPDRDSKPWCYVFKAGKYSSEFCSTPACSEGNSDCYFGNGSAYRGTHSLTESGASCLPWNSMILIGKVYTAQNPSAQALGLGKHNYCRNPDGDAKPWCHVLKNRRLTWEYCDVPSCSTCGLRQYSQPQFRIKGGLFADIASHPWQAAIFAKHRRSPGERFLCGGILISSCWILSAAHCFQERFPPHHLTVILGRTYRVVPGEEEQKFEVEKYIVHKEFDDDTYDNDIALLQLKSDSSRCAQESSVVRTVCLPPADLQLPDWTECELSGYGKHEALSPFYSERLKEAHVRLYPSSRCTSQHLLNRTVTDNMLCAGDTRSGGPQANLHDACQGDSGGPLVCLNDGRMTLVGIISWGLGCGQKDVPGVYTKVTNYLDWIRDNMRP
Method: The inhibitor (I) constants (Ki) were determined for the inhibition of a series of human enzymes (FXa, thrombin, trypsin, plasmin, protein Ca, streptokinase, tPA, and urokinase) by each compound. Chromogenic substrate assays were performed using a Labsystems IEMS (Cergy Pontoise, France) microtiter plate reader. In each assay, the compound was tested at a minimum of seven concentrations in duplicate to obtain an inhibition curve. Assays were performed according to the following general procedure. In a 96-well microtiter plate, 25 μL of compound, inhibitor solution or buffer was added to 50 μL of substrate. A volume of 25 μL of enzyme solution was added just before the plate was placed in the microtiter plate reader for 1 h at 37 °C. The hydrolysis of the substrate yields p-nitroaniline, which was continuously monitored spectrophotometrically at 405 nm. Data were collected and the initial rate of substrate hydrolysis [Vo (mOD/minute)] was calculated. Following Michaelis-Menten kinetics, the affinity of the enzyme for the substrate, in the absence of the inhibitor (Km) and in the presence of an inhibitor (Kp), was determined to be the negative inverse x-intercept of Lineweaver–Burk plots. The dissociation constant for inhibition (Ki) was calculated using the following equation: Ki = (Km·[I])/(Kp − Km) as described by Williams and Morrison[40].

FXa = target: T1, FXa (Homo sapiens, UniProt P00742); assay: Inhibition of amidolytic activity of FXa toward S-2222 (Michaelis-Menten, Lineweaver-Burk; with or without TFPI); format: biochemical; details: for slope of inhibition activity plot: FXa
T1 construct: purchased Haematologic Technologies (Essex Junction, VT, USA)
T1 sequence (P00742 235-488 limits assumed): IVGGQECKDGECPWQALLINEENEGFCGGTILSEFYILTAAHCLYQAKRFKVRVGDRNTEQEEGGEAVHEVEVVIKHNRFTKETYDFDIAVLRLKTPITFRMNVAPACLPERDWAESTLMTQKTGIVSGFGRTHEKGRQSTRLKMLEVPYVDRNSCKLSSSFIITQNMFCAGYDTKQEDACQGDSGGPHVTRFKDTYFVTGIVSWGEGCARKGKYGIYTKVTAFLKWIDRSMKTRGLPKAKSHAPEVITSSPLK
T1 sequence (P00742 41-179 limits assumed): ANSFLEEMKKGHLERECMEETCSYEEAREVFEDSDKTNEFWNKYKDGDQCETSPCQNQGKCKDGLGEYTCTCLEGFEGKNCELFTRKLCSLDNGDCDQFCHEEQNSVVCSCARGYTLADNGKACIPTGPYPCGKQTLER
Method: To elucidate the mechanisms responsible for inhibition of coagulation and platelet aggregation by compounds 1–4, inhibition of FXa activity was determined using chromogenic substrates. […] We observed a decrease in Vmax, with no effect on the Km of FXa toward S-2222 in the presence of compound 1. […] We also observed a slope of 0.401 for the control without compound 2, and slopes of 0.442 and 0.465 for compound 2 at concentrations of 2 and 5 µM, respectively. […] We observed a decrease in Vmax, with no effect on the Km of FXa toward S-2222 in the presence of compound 2. […] Inhibition activity plots were obtained for different concentrations of compound 3, showing a slope of 0.388 for the control without compound 3, and slopes of 0.408 and 0.464 for compound 3 at concentrations of 2 and 5 µM, respectively. […] We also observed a slope of 0.363 for the control without compound 4, and slopes of 0.376 and 0.398 for compound 4 at concentrations of 2 and 5 µM, respectively. […] We observed a decrease in Vmax, with no effect on the Km of FXa toward S-2222 in the presence of compound 4.
as §1
Each compound with or without TFPI was dissolved in 50 mM Tris-HCl buffer (pH 7.4) containing 7.5 mM EDTA and 150 mM NaCl. Following a 2-min incubation at 37 °C, FXa solution (150 μL, 1 U/mL) was added, followed by incubation at 37 °C for 1 min. S-2222 (an FXa substrate, 150 μL, 1.5 mM) solution was subsequently added, and the absorbance at 405 nm was monitored for 20 min using a spectrophotometer (TECAN, Männedorf, Switzerland). The absorbance-time curve and the slope of the curve (Vi) were used to represent the activity of the enzyme. Distilled water served as a control (the slope of curve V0). The inhibitory effect was calculated according to equation (1):1 Inhibitoryrate(%)=(V0−Vi)/V0×100 where V0 represents the slope of the vehicle and Vi represents the slope of the samples.

Structure (SMILES): CC(=O)NCCc1ccc2c(c1)O[C@H](c1ccc(O)c(O)c1)[C@H](NC(C)=O)O2 [Compound 1, (2 R,3 R)-2-(3′,4′-dihydroxyphenyl)-3-acetylamino-7-(N-acetyl-2″-aminoethyl)-1,4-benzodioxane]
- inhibition of FXa production (generation) by FVIIa in HUVECs (HUVECs): strongest inhibition
- Ratio = Ki enzyme/Ki Factor Xa, tPA (tPA): >100
- pKi (tPA; substrate S-2228): < 3.52
- Km of FXa toward S-2222 in the presence of compound (FXa): no effect
- Vmax of FXa toward S-2222 in the presence of compound (FXa): decrease
- type of inhibition of FXa (Lineweaver-Burk plots) (FXa; S-2222): noncompetitive inhibition
- slope of inhibition activity plot (FXa; compound at 2 µM, S-2222): 0.707
- slope of inhibition activity plot (FXa; compound at 5 µM, S-2222): 0.957
- pKi (FXa; substrate S-2222): 5.53
